From patent publication US9486506B2 (Novo Nordisk A/S, priority 2011, dated 2016)
Numbered stars: 1 amine (or outer) side, 2 acyl side, 3 side chain; on linkers, the order of the positions; unused ones are H or OH. Side chains are listed from the residue outwards. Peptide text beside a SMILES is read from it. * marks the point of attachment. C16 diacid = O=C(O)CCCCCCCCCCCCCCC(=O)*; γGlu = O=C(O)[C@H](CCC(=O)[*:2])N[*:1]; AEEA = NCCOCCOCC(=O)O

Tests used:
[1] = target: T1, glucagon receptor (Homo sapiens, UniProt P47871); assay: Assay (I) Glucagon activity (cAMP biosensor, FLIPR); assay type: cell-based
T1 construct: expressed in transfected cells

[2] = Assay (X) Chemical stability assessment by RP-UPLC; assay type: physicochemical; conditions: pH 8.15, 14 days at 37° C. vs 5° C., 333 μM

T1 sequence (P47871 26-477): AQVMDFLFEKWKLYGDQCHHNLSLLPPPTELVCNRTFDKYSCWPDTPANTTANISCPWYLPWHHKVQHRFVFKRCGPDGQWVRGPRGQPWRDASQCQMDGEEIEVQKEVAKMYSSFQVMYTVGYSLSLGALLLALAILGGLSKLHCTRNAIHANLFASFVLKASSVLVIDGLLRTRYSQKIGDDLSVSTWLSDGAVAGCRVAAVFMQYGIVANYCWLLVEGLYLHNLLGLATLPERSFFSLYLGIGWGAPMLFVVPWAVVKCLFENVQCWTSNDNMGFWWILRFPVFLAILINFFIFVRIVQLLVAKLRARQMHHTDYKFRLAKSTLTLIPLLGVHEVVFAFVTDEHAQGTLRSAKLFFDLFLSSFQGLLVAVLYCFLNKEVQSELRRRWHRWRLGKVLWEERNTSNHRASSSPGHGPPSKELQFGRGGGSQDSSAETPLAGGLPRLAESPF

Compound	EC50 [1] [nM]	Chemical stability [Purity loss/14 days 37 C.] [2] [%]
CC(C)C[C@H](NC(=O)[C@H](Cc1ccc(O)cc1)NC(=O)[C@H](CCCNC(=N)N)NC(=O)[C@H](CO)NC(=O)[C@H](Cc1ccc(O)cc1)NC(=O)[C@H](CC(=O)O)NC(=O)[C@H](CO)NC(=O)[C@@H](NC(=O)[C@H](Cc1ccccc1)NC(=O)[C@@H](NC(=O)CNC(=O)[C@H](CCC(N)=O)NC(=O)[C@H](CO)NC(=O)[C@@H](N)Cc1c[nH]cn1)[C@@H](C)O)[C@@H](C)O)C(=O)N[C@@H](CCC(=O)O)C(=O)N[C@@H](CO)C(=O)N[C@@H](CCCNC(=N)N)C(=O)N[C@@H](CCCNC(=N)N)C(=O)N[C@@H](C)C(=O)N[C@@H](CCC(N)=O)C(=O)N[C@@H](CC(=O)O)C(=O)N[C@@H](Cc1ccccc1)C(=O)N[C@H](C(=O)N[C@@H](CCCCNC(=O)CC[C@H](NC(=O)CC[C@H](NC(=O)COCCOCCNC(=O)COCCOCCNC(=O)CC[C@H](NC(=O)CCCCCCCCCCCCCCC(=O)O)C(=O)O)C(=O)O)C(=O)O)C(=O)N[C@@H](Cc1c[nH]c2ccccc12)C(=O)N[C@@H](CC(C)C)C(=O)N[C@@H](CC(C)C)C(=O)N[C@@H](CO)C(=O)N[C@H](C(=O)O)[C@@H](C)O)C(C)C [Example 70, N^ε24-[(4S)-4-carboxy-4-[[(4S)-4-carboxy-4-[[2-[2-[2-[[2-[2-[2-[[(4S)-4-carboxy-4-(15-carboxypentadecanoylamino)butanoyl]amino]ethoxy]ethoxy]acetyl]amino]ethoxy]ethoxy]acetyl]amino]butanoyl]amino]butanoyl]-[Arg12,Glu15,Lys24,Leu27,Ser28]-Glucagon] (H-HSQGTFTSDYSRYLESRRAQDFVK([γGlu-γGlu-AEEA-AEEA-γGlu-C16 diacid])WLLST-OH)	0.14	7.6
CC(C)C[C@H](NC(=O)[C@H](Cc1ccc(O)cc1)NC(=O)[C@H](CCCNC(=N)N)NC(=O)[C@H](CO)NC(=O)[C@H](Cc1ccc(O)cc1)NC(=O)[C@H](CC(=O)O)NC(=O)[C@H](CO)NC(=O)[C@@H](NC(=O)[C@H](Cc1ccccc1)NC(=O)[C@@H](NC(=O)CNC(=O)[C@H](CCC(N)=O)NC(=O)[C@H](CO)NC(=O)[C@@H](N)Cc1c[nH]cn1)[C@@H](C)O)[C@@H](C)O)C(=O)N[C@@H](CC(=O)O)C(=O)N[C@@H](C)C(=O)N[C@@H](CCCNC(=N)N)C(=O)N[C@@H](CCCNC(=N)N)C(=O)N[C@@H](C)C(=O)N[C@@H](CCC(N)=O)C(=O)N[C@@H](CC(=O)O)C(=O)N[C@@H](Cc1ccccc1)C(=O)N[C@H](C(=O)N[C@@H](CCCCNC(=O)CC[C@H](NC(=O)CC[C@H](NC(=O)CC[C@H](NC(=O)CCCCCCCCCCCCCCC(=O)O)C(=O)O)C(=O)O)C(=O)O)C(=O)N[C@@H](Cc1c[nH]c2ccccc12)C(=O)N[C@@H](CC(C)C)C(=O)N[C@@H](CC(C)C)C(=O)N[C@@H](CO)C(=O)N[C@H](C(=O)O)[C@@H](C)O)C(C)C [Example 72, N^ε24-[(4S)-4-carboxy-4-[[(4S)-4-carboxy-4-[[(4S)-4-carboxy-4-(15-carboxypentadecanoylamino)butanoyl]amino]butanoyl]amino]butanoyl]-[Arg12,Ala16,Lys24,Leu27,Ser28]-Glucagon] (H-HSQGTFTSDYSRYLDARRAQDFVK([γGlu-γGlu-γGlu-C16 diacid])WLLST-OH)	0.016	6.1
CC[C@H](C)[C@H](NC(=O)[C@H](CC(=O)O)NC(=O)[C@H](CC(C)C)NC(=O)[C@H](Cc1ccc(O)cc1)NC(=O)[C@H](CCCCN)NC(=O)[C@H](CO)NC(=O)[C@H](Cc1ccc(O)cc1)NC(=O)[C@H](CC(=O)O)NC(=O)[C@H](CO)NC(=O)[C@@H](NC(=O)[C@H](Cc1ccccc1)NC(=O)[C@@H](NC(=O)CNC(=O)[C@H](CCC(N)=O)NC(=O)[C@H](CO)NC(=O)[C@@H](N)Cc1c[nH]cn1)[C@@H](C)O)[C@@H](C)O)C(=O)N[C@@H](CCCNC(=N)N)C(=O)N[C@@H](CCCNC(=N)N)C(=O)N[C@@H](C)C(=O)N[C@@H](CCC(N)=O)C(=O)N[C@@H](CC(=O)O)C(=O)N[C@@H](Cc1ccccc1)C(=O)N[C@H](C(=O)N[C@@H](CCCCNC(=O)CC[C@H](NC(=O)CC[C@H](NC(=O)CC[C@H](NC(=O)CC[C@H](NC(=O)CCCCCCCCCCCCCCCCC(=O)O)C(=O)O)C(=O)O)C(=O)O)C(=O)O)C(=O)N[C@@H](Cc1c[nH]c2ccccc12)C(=O)N[C@@H](CC(C)C)C(=O)N[C@@H](CC(C)C)C(=O)N[C@@H](CO)C(=O)N[C@H](C(N)=O)[C@@H](C)O)C(C)C [Example 75, N^ε24-[(4S)-4-carboxy-4-[[(4S)-4-carboxy-4-[[(4S)-4-carboxy-4-[[(4S)-4-carboxy-4-(17-carboxyheptadecanoylamino)butanoyl]amino]butanoyl]amino]butanoyl]amino]butanoyl]-[Ile16,Lys24,Leu27,Ser28]-Glucagon amide]	0.402	3.6
CC(C)C[C@H](NC(=O)[C@H](Cc1c[nH]c2ccccc12)NC(=O)[C@H](CCCCNC(=O)CC[C@H](NC(=O)CC[C@H](NC(=O)CC[C@H](NC(=O)CC[C@H](NC(=O)CCCCCCCCCCCCCCCCC(=O)O)C(=O)O)C(=O)O)C(=O)O)C(=O)O)NC(=O)[C@@H](NC(=O)[C@H](Cc1ccccc1)NC(=O)[C@H](CC(=O)O)NC(=O)[C@H](CCC(N)=O)NC(=O)[C@H](C)NC(=O)[C@H](CCCNC(=N)N)NC(=O)[C@H](CCCNC(=N)N)NC(=O)[C@@H](NC(=O)[C@H](CC(=O)O)NC(=O)[C@H](CC(C)C)NC(=O)[C@H](Cc1ccc(O)cc1)NC(=O)[C@H](CCCCN)NC(=O)[C@H](CO)NC(=O)[C@H](Cc1ccc(O)cc1)NC(=O)[C@H](CC(=O)O)NC(=O)[C@H](CO)NC(=O)[C@@H](NC(=O)[C@H](Cc1ccccc1)NC(=O)[C@@H](NC(=O)CNC(=O)[C@H](CCC(N)=O)NC(=O)[C@H](CO)NC(=O)[C@@H](N)Cc1c[nH]cn1)[C@@H](C)O)[C@@H](C)O)C(C)C)C(C)C)C(=O)N[C@@H](CC(C)C)C(=O)N[C@@H](CO)C(=O)N[C@H](C(N)=O)[C@@H](C)O [Example 76, N^ε24-[(4S)-4-carboxy-4-[[(4S)-4-carboxy-4-[[(4S)-4-carboxy-4-[[(4S)-4-carboxy-4-(17-carboxyheptadecanoylamino)butanoyl]amino]butanoyl]amino]butanoyl]amino]butanoyl]-[Val16,Lys24,Leu27,Ser28]-Glucagon amide]	0.268	5.5
CC(C)C[C@H](NC(=O)[C@H](CC(=O)O)NC(=O)[C@H](CC(C)C)NC(=O)[C@H](Cc1ccc(O)cc1)NC(=O)[C@H](CCCCN)NC(=O)[C@H](CO)NC(=O)[C@H](Cc1ccc(O)cc1)NC(=O)[C@H](CC(=O)O)NC(=O)[C@H](CO)NC(=O)[C@@H](NC(=O)[C@H](Cc1ccccc1)NC(=O)[C@@H](NC(=O)CNC(=O)[C@H](CCC(N)=O)NC(=O)[C@H](CO)NC(=O)[C@@H](N)Cc1c[nH]cn1)[C@@H](C)O)[C@@H](C)O)C(=O)N[C@@H](CCCNC(=N)N)C(=O)N[C@@H](CCCNC(=N)N)C(=O)N[C@@H](C)C(=O)N[C@@H](CCC(N)=O)C(=O)N[C@@H](CC(=O)O)C(=O)N[C@@H](Cc1ccccc1)C(=O)N[C@H](C(=O)N[C@@H](CCCCNC(=O)CC[C@H](NC(=O)CC[C@H](NC(=O)CC[C@H](NC(=O)CC[C@H](NC(=O)CCCCCCCCCCCCCCCCC(=O)O)C(=O)O)C(=O)O)C(=O)O)C(=O)O)C(=O)N[C@@H](Cc1c[nH]c2ccccc12)C(=O)N[C@@H](CC(C)C)C(=O)N[C@@H](CC(C)C)C(=O)N[C@@H](CO)C(=O)N[C@H](C(N)=O)[C@@H](C)O)C(C)C [Example 77, N^ε24-[(4S)-4-carboxy-4-[[(4S)-4-carboxy-4-[[(4S)-4-carboxy-4-[[(4S)-4-carboxy-4-(17-carboxyheptadecanoylamino)butanoyl]amino]butanoyl]amino]butanoyl]amino]butanoyl]-[Leu16,Lys24,Leu27,Ser28]-Glucagon amide]	0.812	4.1
CC(C)C[C@H](NC(=O)[C@H](Cc1c[nH]c2ccccc12)NC(=O)[C@H](CCCCNC(=O)CC[C@H](NC(=O)CC[C@H](NC(=O)CC[C@H](NC(=O)CC[C@H](NC(=O)CCCCCCCCCCCCCCCCC(=O)O)C(=O)O)C(=O)O)C(=O)O)C(=O)O)NC(=O)[C@@H](NC(=O)[C@H](Cc1ccccc1)NC(=O)[C@H](CC(=O)O)NC(=O)[C@H](CCC(N)=O)NC(=O)[C@H](C)NC(=O)[C@H](CCCNC(=N)N)NC(=O)[C@H](CCCNC(=N)N)NC(=O)[C@@H](NC(=O)[C@H](CC(=O)O)NC(=O)[C@H](CC(C)C)NC(=O)[C@H](Cc1ccc(O)cc1)NC(=O)[C@H](CCCCN)NC(=O)[C@H](CO)NC(=O)[C@H](Cc1ccc(O)cc1)NC(=O)[C@H](CC(=O)O)NC(=O)[C@H](CO)NC(=O)[C@@H](NC(=O)[C@H](Cc1ccccc1)NC(=O)[C@@H](NC(=O)CNC(=O)[C@H](CCC(N)=O)NC(=O)[C@H](CO)NC(=O)[C@@H](N)Cc1c[nH]cn1)[C@@H](C)O)[C@@H](C)O)C(C)C)C(C)C)C(=O)N[C@@H](CC(C)C)C(=O)N[C@@H](CO)C(=O)N[C@H](C(=O)O)[C@@H](C)O [Example 78, N^ε24-[(4S)-4-carboxy-4-[[(4S)-4-carboxy-4-[[(4S)-4-carboxy-4-[[(4S)-4-carboxy-4-(17-carboxyheptadecanoylamino)butanoyl]amino]butanoyl]amino]butanoyl]amino]butanoyl]-[Val16,Lys24,Leu27,Ser28]-Glucagon]	0.134	4.3
